One assay addresses T1, PDK1 kinase (Homo sapiens, UniProt O15530).
T1 sequence (O15530 1-556): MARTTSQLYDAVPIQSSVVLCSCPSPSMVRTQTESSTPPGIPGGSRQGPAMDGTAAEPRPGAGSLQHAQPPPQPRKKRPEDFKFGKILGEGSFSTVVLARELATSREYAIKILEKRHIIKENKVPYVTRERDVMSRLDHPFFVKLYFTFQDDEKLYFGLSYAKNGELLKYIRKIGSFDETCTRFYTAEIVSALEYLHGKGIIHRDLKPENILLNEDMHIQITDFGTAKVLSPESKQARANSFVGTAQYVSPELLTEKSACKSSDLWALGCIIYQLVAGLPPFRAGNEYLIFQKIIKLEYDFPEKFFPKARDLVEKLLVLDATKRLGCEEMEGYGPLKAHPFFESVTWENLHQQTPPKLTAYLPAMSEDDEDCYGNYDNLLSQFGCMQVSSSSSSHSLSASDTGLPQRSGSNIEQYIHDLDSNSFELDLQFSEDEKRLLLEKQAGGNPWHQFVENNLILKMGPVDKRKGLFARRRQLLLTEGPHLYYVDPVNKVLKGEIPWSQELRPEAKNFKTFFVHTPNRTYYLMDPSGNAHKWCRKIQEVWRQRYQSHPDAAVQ
As to the kind of experiment: PDK1 Kinase Alpha Screen Assay. Type of assay: biochemical. Conditions: PDK1 Kinase Alpha Screen Assay; read-out: PDK1 IC50. Summed up: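 Kinase inhibition measured as loss of AlphaScreen signal from antibody recognition of phosphorylated biotin-PDK1-4 peptide. Reactions contain 10 uM ATP and 50 nM peptide, run 3-18 hours before EDTA quench and overnight bead development at room temperature.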

A further assay has as its system PC-3 cells. In words: Cell Proliferation Assay (Cell Titer Glo), PC-3 cell line. The class given is cell-based. As to conditions: Homo sapiens, PC-3, Cell Proliferation Assay, PC3; read-out: CPEC50 PC3. Summed up: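 Cell Titer Glo luminescence, read after fresh medium replaced the dosing medium, gave viability of PC-3 cells plated at 1000 cells/well. Compounds, 1:3 serially diluted in DMSO at 500× and then in medium, were added after 3-5 h adhesion and incubated 3 days at 37° C.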
On the technique in general: In ATP-based viability assays light output follows the ATP content of the culture.

A value given as a limit tells only on which side of the number the result lay.

The term IC50 denotes the concentration at which inhibition is half-maximal. For the molecule `O=C(c1ccc(Nc2ncc3ccc(N(CCO)CCO)cc3n2)cc1)N1CCOCC1` [Compound 352, (4-(7-(bis(2-hydroxyethyl)amino)quinazolin-2-ylamino)phenyl)(morpholino)methanone], at PDK1 kinase, the IC50 was less than 5 µM. Besides, the EC50 in the assay on PC-3 cells fell in the range of 5 to 10 µM.

`O=C(c1ccc(Nc2ncc3ccc(-c4cnn(CCO)c4)cc3n2)cc1)N1CCOCC1` [Compound 353, (4-(7-(1-(2-hydroxyethyl)-1H-pyrazol-4-yl)quinazolin-2-ylamino)phenyl)(morpholino)methanone]: the IC50 on PDK1 kinase was less than 5 µM. In addition, the EC50 with PC-3 cells was in the range of 5 to 10 µM.

In the case of `CC(C)NC(=O)c1ccc(Nc2ncc3ccc(NC4CCN(C)CC4)cc3n2)cc1` [Compound 354, N-isopropyl-4-(7-(1-methylpiperidin-4-ylamino)quinazolin-2-ylamino)benzamide], the IC50 on PDK1 kinase was less than 5 µM. The EC50 in the assay on PC-3 cells is less than 5 µM.

Consider `CN1CCC(Nc2ccc3cnc(Nc4ccc(N5CCOCC5)c(Cl)c4)nc3c2)CC1` [Compound 355, N2-(3-chloro-4-morpholinophenyl)-N7-(1-methylpiperidin-4-yl)quinazoline-2,7-dimaine], for which the IC50 at PDK1 kinase is less than 5 µM. The EC50 with PC-3 cells is less than 5 µM.

In the case of `Cc1ccc(OC2CCNCC2)c2nc(Nc3ccc(C(=O)N4CCOCC4)cc3)ncc12` [Compound 356, (4-(5-methyl-8-(piperidin-4-yloxy)quinazolin-2-ylamino)phenyl)(morpholino)methanone], the IC50 at PDK1 kinase is less than 5 µM. The EC50 with PC-3 cells was 5 to 10 µM.

Take `CC(C)NS(=O)(=O)c1ccc(Nc2ncc3c(Br)ccc(OC4CCN(C(C)C)CC4)c3n2)cc1` [Compound 357, 4-(5-bromo-8-(1-isopropylpiperidin-4-yloxy)quinazolin-2-ylamino)-N-isopropylbenzenesulfonamide]: at PDK1 kinase, the half-maximal inhibitory concentration (IC50) is less than 5 µM. Moreover, in the assay on PC-3 cells, the EC50 was less than 5 µM.

For `CC(C)N1CCC(Oc2ccc(Br)c3cnc(Nc4ccc(C(=O)N5CCOCC5)cc4)nc23)CC1` [Compound 358, (4-(5-bromo-8-(1-isopropylpiperidin-4-yloxy)quinazolin-2-ylamino)phenyl)(morpholino)methanone], the 50% inhibitory concentration (IC50) on PDK1 kinase was less than 5 µM. Besides, the EC50 in the assay on PC-3 cells is 5 to 10 µM.

As to `Cc1ccc(OC2CCN(C(C)C)CC2)c2nc(Nc3ccc(C(=O)N4CCOCC4)cc3)ncc12` [Compound 359, (4-(8-(1-isopropylpiperidin-4-yloxy)-5-methylquinazolin-2-ylamino)phenyl)(morpholino)methanone], the IC50 on PDK1 kinase was less than 5 µM. In addition, the EC50 with PC-3 cells was 5 to 10 µM.

Take `Cc1ccc(OC2CCN(C(C)C)CC2)c2nc(Nc3ccc(S(=O)(=O)NC(C)C)cc3)ncc12` [Compound 360, N-isopropyl-4-(8-(1-isopropylpiperidin-4-yloxy)-5-methylquinazolin-2-ylamino)benzenesulfonamide]: the half-maximal inhibitory concentration (IC50) at PDK1 kinase is less than 5 µM. In addition, the EC50 in the assay with PC-3 cells was less than 5 µM.

In the case of `NS(=O)(=O)c1ccc(Nc2ncc3ccc(NC4CCNCC4)cc3n2)cc1` [Compound 361, 4-(7-(piperidin-4-ylamino)quinazolin-2-ylamino)benzenesulfonamide], on PDK1 kinase, the IC50 is less than 5 µM. In addition, the EC50 in the assay on PC-3 cells lay within 5 to 10 µM.

With `Cc1ccc(OC2CCNCC2)c2nc(Nc3ccc(N4CCOCC4)c(Cl)c3)ncc12` [Compound 362, N-(3-chloro-4-morpholinophenyl)-5-methyl-8-(piperidin-4-yloxy)quinazolin-2-amine], on PDK1 kinase, the IC50 is less than 5 µM. Moreover, the EC50 with PC-3 cells is less than 5 µM.

Regarding `Clc1cc(Nc2ncc3ccc(NC4CCNCC4)cc3n2)ccc1N1CCOCC1` [Compound 363, N2-(3-chloro-4-morpholinophenyl)-N7-(piperidin-4-yl)quinazoline-2,7-diamine], the half-inhibitory concentration (IC50) at PDK1 kinase was less than 5 µM. The EC50 in the assay on PC-3 cells is less than 5 µM.

Turning to `Cc1ccc(OC2CCNCC2)c2nc(Nc3cccc(F)c3)ncc12` [Compound 365, N-(3-fluorophenyl)-5-methyl-8-(piperidin-4-yloxy)quinazolin-2-amine], the 50% inhibitory concentration (IC50) on PDK1 kinase is less than 5 µM. The EC50 in the assay on PC-3 cells is 5 to 10 µM.

For `Cc1ccc(OC2CCNCC2)c2nc(Nc3ccc(N4CCOCC4)c(F)c3)ncc12` [Compound 366, N-(3-fluoro-4-morpholinophenyl)-5-methyl-8-(piperidin-4-yloxy)quinazolin-2-amine], the IC50 at PDK1 kinase was less than 5 µM. In the assay with PC-3 cells, the EC50 was in the range of 5 to 10 µM.

For `Cc1ccc(OC2CCNCC2)c2nc(Nc3ccc(S(=O)(=O)N4CCOCC4)cc3)ncc12` [Compound 367, 5-methyl-N-(4-(morpholinosulfonyl)phenyl)-8-(piperidin-4-yloxy)quinazolin-2-amine], on PDK1 kinase, the 50% inhibitory concentration (IC50) is less than 5 µM. Also, the EC50 in the assay with PC-3 cells lay within 5 to 10 µM.

With `CN1CCC(Nc2ccc3cnc(Nc4ccc(N5CCOCC5)c(F)c4)nc3c2)CC1` [Compound 368, N2-(3-fluoro-4-morpholinophenyl)-N7-(1-methylpiperidin-4-yl)quinazoline-2,7-diamine], the half-maximal inhibitory concentration (IC50) on PDK1 kinase is less than 5 µM. Also, the EC50 in the assay with PC-3 cells is less than 5 µM.

Consider `CN1CCC(Nc2ccc3cnc(Nc4ccc(N5CCOCC5)cc4)nc3c2)CC1` [Compound 369, N7-(1-methylpiperidin-4-yl)-N2-(4-morpholinophenyl)quinazoline-2,7-diamine], for which the half-inhibitory concentration (IC50) at PDK1 kinase was less than 5 µM. In the assay on PC-3 cells, the EC50 was in the range of 5 to 10 µM.

Regarding `CN1CCN(c2ccc(Nc3ncc4c(Br)ccc(OC5CCNCC5)c4n3)cc2)CC1` [Compound 373, 5-bromo-N-(4-(4-methylpiperazin-1-yl)phenyl)-8-(piperidin-4-yloxy)quinazolin-2-amine], at PDK1 kinase, the concentration for half-maximal inhibition (IC50) was 10 to 25 µM. The EC50 in the assay with PC-3 cells is less than 5 µM.

In the case of `COc1cc(C(=O)NC2CCN(C)CC2)ccc1Nc1ncc2c(C)ccc(OC3CCNCC3)c2n1` [Compound 375, 3-methoxy-4-(5-methyl-8-(piperidin-4-yloxy)quinazolin-2-ylamino)-N-(1-methylpiperidin-4-yl)benzamide], the IC50 at PDK1 kinase lay in the range of 5 to 10 µM. In the assay with PC-3 cells, the EC50 lay in the range of 5 to 10 µM.

On to `CN1CCC(Nc2ccc(Cl)c3cnc(Nc4ccc(C(=O)N5CCOCC5)cc4)nc23)CC1` [Compound 377, (4-(5-chloro-8-(1-methylpiperidin-4-ylamino)quinazolin-2-ylamino)phenyl) (morpholino)methanone], for which, on PDK1 kinase, the IC50 was less than 5 µM. For the same molecule, the EC50 in the assay with PC-3 cells was less than 5 µM.

With `O=C(c1ccc(Nc2ncc3c(Cl)ccc(OC4CCNCC4)c3n2)cc1F)N1CCOCC1` [Compound 378, (4-(5-chloro-8-(piperidin-4-yloxy)quinazolin-2-ylamino)-2-fluorophenyl)(morpholino)methanone], the concentration for half-maximal inhibition (IC50) on PDK1 kinase was less than 5 µM. The EC50 with PC-3 cells is less than 5 µM.

Turning to `CC(C)NC(=O)c1ccc(Nc2ncc3c(Cl)ccc(OC4CCNCC4)c3n2)cc1F` [Compound 379, 4-(5-chloro-8-(piperidin-4-yloxy)quinazolin-2-ylamino)-2-fluoro-N-isopropylbenzamide], the 50% inhibitory concentration (IC50) at PDK1 kinase is less than 5 µM. Further, in the assay with PC-3 cells, the EC50 is less than 5 µM.

Regarding `COc1cccc(Nc2ncc3c(Cl)ccc(OC4CCNCC4)c3n2)c1` [Compound 380, 5-chloro-N-(3-methoxyphenyl)-8-(piperidin-4-yloxy)quinazolin-2-amine], the 50% inhibitory concentration (IC50) at PDK1 kinase was less than 5 µM. For the same molecule, in the assay on PC-3 cells, the EC50 was less than 5 µM.

Take `NC(=O)c1cc(Nc2ncc3c(Cl)ccc(OC4CCNCC4)c3n2)cc(C(F)(F)F)c1` [Compound 381, 3-(5-chloro-8-(piperidin-4-yloxy)quinazolin-2-ylamino)-5-(trifluoromethyl)benzamide]: the IC50 at PDK1 kinase was less than 5 µM. In the assay with PC-3 cells, the EC50 was less than 5 µM.

The record behind these values is US7932262B2 (Novartis AG, priority 2006, dated 2011).
